Measured values taken from ChEMBL document CHEMBL1201862, “PubChem BioAssay data set” (2004).
“And” between values parts separate entries of the source, which are not always exact repeats. Equal values may be shown once.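 Where inhibition never reached the appropriate level, the endpoint shown equals the highest concentration tested. Otherwise, values were interpolated linearly from a five-concentration, 48-hour dose response in 96-well plates. GI50: concentration for 50% inhibition of growth.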 The source made the active and inactive calls. Rule as the data show it: active = GI50 up to about 1.1 µM and inactive = higher.

Tests used:
Experiment in all cases: NCI tumour cell line growth inhibition, 48 h
[1] = test system: HCC 2998
[2] = test system: KM12
[3] = test system: SK-OV-3
[4] = test system: 786-0
[5] = test system: OVCAR-4
[6] = test system: TK-10
[7] = test system: HL-60
[8] = test system: CCRF-CEM
[9] = test system: NCI-H522
[10] = test system: SK-MEL-28
[11] = test system: NCI-H460
[12] = test system: HT-29
[13] = test system: OVCAR-5
[14] = test system: CAKI-1
[15] = test system: NCI-H23
[16] = test system: UO-31
[17] = test system: SW-620
[18] = test system: M14
[19] = test system: NCI/ADR-RES
[20] = test system: SR

Row | Structure (SMILES) | GI50 [1] | GI50 [2] | GI50 [3] | GI50 [4] | GI50 [5] | GI50 [6] | GI50 [7] | GI50 [8] | GI50 [9] | GI50 [10] | GI50 [11] | GI50 [12] | GI50 [13] | GI50 [14] | GI50 [15] | GI50 [16] | GI50 [17] | GI50 [18] | GI50 [19] | GI50 [20]
1 | C/C(=N\N=C(/S)N1CC2CCC(CC2)C1)c1cccc[n+]1[O-] | 10.8 µM (inactive) | 4.56 µM (inactive) | 35.8 µM (inactive) | 6.9 µM (inactive) | 2.46 µM (inactive) | 20.4 µM (inactive) | 0.23 µM (active) | 0.238 µM (active) | 11.4 µM (inactive) | 5.2 µM (inactive) | 8.09 µM (inactive) | 1.84 µM (inactive) | 6.11 µM (inactive) | 9.14 µM (inactive) | 16.6 µM (inactive) | 3.12 µM (inactive) | 4.35 µM (inactive) | 6.15 µM (inactive) | 3.09 µM (inactive) | –
2 | O=c1[nH]c(N/N=C\C(O)C(O)C(O)CO)nc2ccccc12 (stereo not given) | – | > 100 µM (inactive) | > 100 µM (inactive) | > 100 µM (inactive) | – | > 100 µM (inactive) | > 100 µM (inactive) | > 100 µM (inactive) | – | > 100 µM (inactive) | > 100 µM (inactive) | > 100 µM (inactive) | > 100 µM (inactive) | > 100 µM (inactive) | > 100 µM (inactive) | > 100 µM (inactive) | > 100 µM (inactive) | > 100 µM (inactive) | > 100 µM (inactive) | > 100 µM (inactive) and 56.2 µM (inactive)
3 | O=C1/C(=C/c2cccs2)NC(=S)N1CN1CCCCC1 | – | > 100 µM (inactive) | > 100 µM (inactive) | 42.3 µM (inactive) | 20.7 µM (inactive) | > 100 µM (inactive) | – | 60.5 µM (inactive) | 71 µM (inactive) | > 100 µM (inactive) | – | 39.9 µM (inactive) | > 100 µM (inactive) | – | > 100 µM (inactive) | 80.2 µM (inactive) | 30.3 µM (inactive) | 61.7 µM (inactive) | > 100 µM (inactive) | 88.9 µM (inactive)
4 | CN(C)CCCN1c2ccc([N+](=O)[O-])cc2CCc2cc([N+](=O)[O-])ccc21 | 9.84 µM (inactive) | 14.8 µM (inactive) | 17.2 µM (inactive) | 12.1 µM (inactive) | – | 11.3 µM (inactive) | 13.6 µM (inactive) | – | 16.9 µM (inactive) | 15.3 µM (inactive) | 15.1 µM (inactive) | 14.8 µM (inactive) | 13.7 µM (inactive) | – | – | 22.5 µM (inactive) | 15.3 µM (inactive) | 16.7 µM (inactive) | 14.3 µM (inactive) | –
5 | c1ccc(Cc2cc(-c3ccccc3)[nH]n2)cc1 | – | 14 µM (inactive) | 32.4 µM (inactive) | 17 µM (inactive) | – | 17.4 µM (inactive) | 16.9 µM (inactive) | 10.9 µM (inactive) | 16.7 µM (inactive) | 11.6 µM (inactive) | 17 µM (inactive) | 11.2 µM (inactive) | 20.6 µM (inactive) | 11.5 µM (inactive) | – | 21.8 µM (inactive) | 14.6 µM (inactive) | 28.5 µM (inactive) | 21.8 µM (inactive) | 18.4 µM (inactive)
6 | O=c1/c(=C/c2ccccn2)sc2nc3cc4c(cc3n12)OCCO4 | > 100 µM (inactive) | > 100 µM (inactive) | > 100 µM (inactive) | > 100 µM (inactive) | > 100 µM (inactive) | > 100 µM (inactive) | – | > 100 µM (inactive) | > 100 µM (inactive) | > 100 µM (inactive) | > 100 µM (inactive) | > 100 µM (inactive) | > 100 µM (inactive) | > 100 µM (inactive) | > 100 µM (inactive) | > 100 µM (inactive) | > 100 µM (inactive) | > 100 µM (inactive) | > 100 µM (inactive) | –
7 | COC(=O)C(=O)CC(=O)CCn1ncc(Cl)c(Cl)c1=O | 7.45 µM (inactive) | 25.9 µM (inactive) | 31 µM (inactive) | 21.7 µM (inactive) | 4.62 µM (inactive) | 47.4 µM (inactive) | 3.94 µM (inactive) | 3.59 µM (inactive) | 0.57 µM (active) | 14 µM (inactive) | 19.7 µM (inactive) | 11.5 µM (inactive) | 19.2 µM (inactive) | 5.78 µM (inactive) | 13.2 µM (inactive) | 18.1 µM (inactive) | 8.36 µM (inactive) | 14.7 µM (inactive) | – | 2.84 µM (inactive)
8 | COc1ccc(-c2nc3ncccn3c2-c2ccc([S+](C)[O-])cc2)cc1 (stereo not given) | – | 80.9 µM (inactive) | 45.3 µM (inactive) | > 100 µM (inactive) | > 100 µM (inactive) | – | > 100 µM (inactive) | > 100 µM (inactive) | – | > 100 µM (inactive) | > 100 µM (inactive) | > 100 µM (inactive) | > 100 µM (inactive) | 14.2 µM (inactive) | > 100 µM (inactive) | > 100 µM (inactive) | > 100 µM (inactive) | > 100 µM (inactive) | > 100 µM (inactive) | 50.7 µM (inactive)
9 | NC(Cc1c[nH]c2cc([N+](=O)[O-])ccc12)C(=O)O (stereo not given) | – | > 100 µM (inactive) | > 100 µM (inactive) | > 100 µM (inactive) | > 100 µM (inactive) | > 100 µM (inactive) | – | – | > 100 µM (inactive) | > 100 µM (inactive) | > 100 µM (inactive) | > 100 µM (inactive) | > 100 µM (inactive) | > 100 µM (inactive) | > 100 µM (inactive) | > 100 µM (inactive) | > 100 µM (inactive) | > 100 µM (inactive) | > 100 µM (inactive) | > 100 µM (inactive)
10 | Cc1ccc(-c2cc(O)c3nc4ccccc4n3c2)cc1 | – | > 100 µM (inactive) | > 100 µM (inactive) | > 100 µM (inactive) | > 100 µM (inactive) | > 100 µM (inactive) | > 100 µM (inactive) | > 100 µM (inactive) | 7.38 µM (inactive) | > 100 µM (inactive) | 60.8 µM (inactive) | > 100 µM (inactive) | – | > 100 µM (inactive) | > 100 µM (inactive) | > 100 µM (inactive) | > 100 µM (inactive) | > 100 µM (inactive) | > 100 µM (inactive) | > 100 µM (inactive)
11 | CC(=O)/C=C/C=C(\C)CC/C=C(\C)CC(C)C | 18.4 µM (inactive) | 27.7 µM (inactive) | 55.7 µM (inactive) | 34 µM (inactive) | 42.1 µM (inactive) | > 100 µM (inactive) | 13 µM (inactive) | 13.5 µM (inactive) | 17.6 µM (inactive) | 33.9 µM (inactive) | 29.9 µM (inactive) | 30.1 µM (inactive) | 61.2 µM (inactive) | 40.8 µM (inactive) | 23.6 µM (inactive) | 76.6 µM (inactive) | 17.1 µM (inactive) | 52.2 µM (inactive) | – | 16.1 µM (inactive)
12 | Cc1nn(C(=O)c2ccccc2O)c2c1C(c1ccc(O)cc1O)SC(=N)N2 (stereo not given) | – | 6.19 µM (inactive) | 3.6 µM (inactive) | 6.85 µM (inactive) | 2.94 µM (inactive) | > 10 µM (inactive) | 5.52 µM (inactive) | 3.05 µM (inactive) | – | 8.91 µM (inactive) | 4.6 µM (inactive) | > 10 µM (inactive) | 1.04 µM (active) | 4.29 µM (inactive) | 3.98 µM (inactive) | 2.84 µM (inactive) | 5.04 µM (inactive) | 3.61 µM (inactive) | 3.33 µM (inactive) | 6.67 µM (inactive)
